Key:
patient's tumor = experiment: Case report: patient who became resistant to successive therapies (Example 1); type: in vivo, human; settings: single patient
Description: A person had been on multiple lines of therapy, with a response to each, but then becoming resistant. The treatments were as follows:
In July, ipilimumab (a therapy directed at CTLA-4, an inhibitor of the immune system) was started. Sutent® was then administered in addition to the ipilimumab. […] As the patient, however, could not eat, they discontinued the Sutent® and died a few days after this discontinuation.

metastatic melanoma = settings: patients with the mutation, cited from earlier work
[1] = Sutent given in addition to ipilimumab, within a few days

SMILES	patient's tumor shrank (patient's tumor; first scan after treatment started January 2010) [%]	result of second scan (patient's tumor; second scan April 2010)	response rate (metastatic melanoma; one study) [%]	durability of responses (metastatic melanoma)	abdomen size (patient's tumor; [1])	bowel movements (patient's tumor; [1])
CCCS(=O)(=O)Nc1ccc(F)c(C(=O)c2c[nH]c3ncc(-c4ccc(Cl)cc4)cc23)c1F [Plexxikon 4032]	75	recurrence	70	generally does not produce durable responses	–	–
CCN(CC)CCNC(=O)c1c(C)[nH]c(/C=C2\C(=O)Nc3ccc(F)cc32)c1C [Sutent®, 5-(5-fluoro-2-oxo-1,2-dihydroindo1-3-ylidenemethyl)-2,4-dimethyl-1H-pyrrole-3-carboxylic acid (2-diethylaminoethyl)amide]	–	–	–	–	abdomen shrank to normal size	normal bowel movements resumed

Source: US20120053185A1, “METHOD TO TREAT MELANOMA IN BRAF INHIBITOR-RESISTANT SUBJECTS” (CollabRx Inc., priority 2010, published 2012)
